In brackets after ≈: the same amount, converted by molar mass.
Legend:
Format in all cases: functional
Escherichia coli = test: Binding to the sequence 5'-ACAATTAA-3', a site proximal to the […] RNA polymerase subunit binding site within the Escherichia coli Trc promoter.; conditions: read-out: Kd app
Enterococcus faecalis [1] = test: Antimicrobial activity was determined against vancomycin-susceptible Enterococcus faecalis (VSEF 29212)
Streptococcus pneumoniae [2] = test: Antimicrobial activity was determined against penicillin-susceptible Streptococcus pneumoniae (PSSP 49619)
Enterococcus faecalis [3] = test: Antimicrobial activity was determined against vancomycin-resistant Enterococcus faecalis (VREF 51559)
Candida albicans = test: Antifungal activity was determined against Candida albicans
Staphylococcus aureus [4] = test: Antimicrobial activity was determined against methicillin-susceptible S. aureus(MSSA 29213)
Streptococcus pneumoniae [5] = test: Antimicrobial activity was determined against penicillin-resistant Streptococcus pneumoniae (PRSP 51422)
Staphylococcus aureus [6] = test: Antimicrobial activity was determined against methicillin-resistant Staphylococcus aureus (MRSA 27660)

SMILES | Kd (Escherichia coli) [nM] | MIC (Enterococcus faecalis [1]) [µg/mL] | MIC (Streptococcus pneumoniae [2]) [µg/mL] | MIC (Enterococcus faecalis [3]) [µg/mL] | MIC (Candida albicans) [µg/mL] | MIC (Staphylococcus aureus [4]) [µg/mL] | MIC (Streptococcus pneumoniae [5]) [µg/mL] | MIC (Staphylococcus aureus [6]) [µg/mL]
Cn1cc(NC(=O)c2cc(NC(=O)c3cc(NC(=O)c4nsc(N5CCCCC5)c4Cl)cn3C)cn2C)cc1C(=O)NCCN1CCOCC1 | 4 | 1 (≈ 1.38 µM) | 0.125 (≈ 0.172 µM) | 1 (≈ 1.38 µM) | > 32 | 2 (≈ 2.76 µM) | 0.062 (≈ 0.0855 µM) | 1 (≈ 1.38 µM)
CN(C)CCCNC(=O)c1cc(NC(=O)c2cc(NC(=O)c3cc(NC(=O)c4nsc(NCCCCN)c4Cl)cn3C)cn2C)cn1C | 1.04 | 1 (≈ 1.43 µM) | 0.5 (≈ 0.714 µM) | 1 (≈ 1.43 µM) | 8 (≈ 11.4 µM) | 2 (≈ 2.86 µM) | 1 (≈ 1.43 µM) | 2 (≈ 2.86 µM)
Cn1cc(NC(=O)c2cc(NC(=O)c3cc(NC(=O)c4nsc(NCCc5ccccn5)c4Cl)cn3C)cn2C)cc1C(=O)NCCN1CCOCC1 | 0.83 | 0.5 (≈ 0.656 µM) | 0.125 (≈ 0.164 µM) | 4 (≈ 5.25 µM) | > 32 | 1 (≈ 1.31 µM) | 0.5 (≈ 0.656 µM) | 2 (≈ 2.62 µM)
Cn1cc(NC(=O)c2cc(NC(=O)c3cc(NC(=O)c4nsc(NCCN5CCOCC5)c4Cl)cn3C)cn2C)cc1C(=O)NCCc1ccncc1 | 4.35 | 0.062 (≈ 0.0813 µM) | 0.062 (≈ 0.0813 µM) | 0.25 (≈ 0.328 µM) | > 32 | 0.125 (≈ 0.164 µM) | 0.5 (≈ 0.656 µM) | 0.5 (≈ 0.656 µM)
Cn1cc(NC(=O)c2cc(NC(=O)c3cc(NC(=O)c4nsc(NCCN5CCOCC5)c4Cl)cn3C)cn2C)cc1C(=O)NCCN1CCOCC1 | 9.09 | 0.25 (≈ 0.325 µM) | 0.062 (≈ 0.0805 µM) | 2 (≈ 2.6 µM) | > 32 | 1 (≈ 1.3 µM) | 0.25 (≈ 0.325 µM) | 4 (≈ 5.19 µM)
Cn1cc(NC(=O)c2cc(NC(=O)c3cc(NC(=O)c4nsc(NCCCCN)c4Cl)cn3C)cn2C)cc1C(=O)NCCCNC1CCCCC1 | 0.43 | 0.5 (≈ 0.663 µM) | 1 (≈ 1.33 µM) | 2 (≈ 2.65 µM) | 32 (≈ 42.4 µM) | 0.5 (≈ 0.663 µM) | 4 (≈ 5.3 µM) | 1 (≈ 1.33 µM)
Cn1cc(NC(=O)c2cc(NC(=O)c3cc(NC(=O)c4nsc(NCCN5CCOCC5)c4Cl)cn3C)cn2C)cc1C(=O)NCC1CC1 | 208 | 0.5 (≈ 0.703 µM) | 1 (≈ 1.41 µM) | 1 (≈ 1.41 µM) | > 32 | 16 (≈ 22.5 µM) | 0.5 (≈ 0.703 µM) | 8 (≈ 11.2 µM)
CN(C)CCCNC(=O)c1cc(NC(=O)c2cc(NC(=O)c3cc(NC(=O)c4nsc(NCCCN)c4Cl)cn3C)cn2C)cn1C | 1.74 | 1 (≈ 1.46 µM) | 0.5 (≈ 0.729 µM) | 2 (≈ 2.91 µM) | 8 (≈ 11.7 µM) | 2 (≈ 2.91 µM) | 4 (≈ 5.83 µM) | 1 (≈ 1.46 µM)
Cn1cc(NC(=O)c2cc(NC(=O)c3cc(NC(=O)c4nsc(NCCc5ccncc5)c4Cl)cn3C)cn2C)cc1C(=O)NCCN1CCOCC1 | 0.29 | 0.25 (≈ 0.328 µM) | 0.062 (≈ 0.0813 µM) | 2 (≈ 2.62 µM) | > 32 | 1 (≈ 1.31 µM) | 0.25 (≈ 0.328 µM) | 1 (≈ 1.31 µM)
Cn1cc(NC(=O)c2cc(NC(=O)c3cc(NC(=O)c4nsc(NCC5CC5)c4Cl)cn3C)cn2C)cc1C(=O)NCCN1CCOCC1 | 1.01 | 0.25 (≈ 0.351 µM) | 0.125 (≈ 0.176 µM) | 1 (≈ 1.41 µM) | > 32 | 0.5 (≈ 0.703 µM) | 0.125 (≈ 0.176 µM) | 1 (≈ 1.41 µM)
Cn1cc(NC(=O)c2cc(NC(=O)c3cc(NC(=O)c4nsc(NCCCO)c4Cl)cn3C)cn2C)cc1C(=O)NCCN1CCOCC1 | 1.03 | 0.125 (≈ 0.175 µM) | 0.5 (≈ 0.699 µM) | 0.5 (≈ 0.699 µM) | > 32 | 1 (≈ 1.4 µM) | 0.031 (≈ 0.0433 µM) | 2 (≈ 2.8 µM)
Cn1cc(NC(=O)c2cc(NC(=O)c3cc(NC(=O)c4nsc(NCCCNC5CCCCC5)c4Cl)cn3C)cn2C)cc1C(=O)NCCCNC1CCCCC1 | 1.19 | 2 (≈ 2.43 µM) | 2 (≈ 2.43 µM) | 2 (≈ 2.43 µM) | 16 (≈ 19.5 µM) | 1 (≈ 1.22 µM) | 0.5 (≈ 0.608 µM) | 1 (≈ 1.22 µM)
CCOCCCNC(=O)c1cc(NC(=O)c2cc(NC(=O)c3cc(NC(=O)c4nsc(NCCN5CCOCC5)c4Cl)cn3C)cn2C)cn1C | 83.3 | 16 (≈ 21.5 µM) | 0.5 (≈ 0.673 µM) | 4 (≈ 5.38 µM) | > 32 | 16 (≈ 21.5 µM) | 1 (≈ 1.35 µM) | 16 (≈ 21.5 µM)
CN(C)CCCNC(=O)c1cc(NC(=O)c2cc(NC(=O)c3cc(NC(=O)c4nsc(NCCCCCCCN)c4Cl)cn3C)cn2C)cn1C | 1.3 | 8 (≈ 10.8 µM) | 32 (≈ 43.1 µM) | 1 (≈ 1.35 µM) | > 32 | 32 (≈ 43.1 µM) | 16 (≈ 21.6 µM) | 32 (≈ 43.1 µM)
CCOCCCNc1snc(C(=O)Nc2cc(C(=O)Nc3cc(C(=O)Nc4cc(C(=O)NCCN5CCOCC5)n(C)c4)n(C)c3)n(C)c2)c1Cl | 1.34 | 0.25 (≈ 0.336 µM) | 0.25 (≈ 0.336 µM) | 2 (≈ 2.69 µM) | > 32 | 1 (≈ 1.35 µM) | 0.125 (≈ 0.168 µM) | 2 (≈ 2.69 µM)
CN(C)CCCCNC(=O)c1cc(NC(=O)c2cc(NC(=O)c3cc(NC(=O)c4nsc(NCCCN)c4Cl)cn3C)cn2C)cn1C | 0.53 | 0.125 (≈ 0.179 µM) | 0.064 (≈ 0.0914 µM) | 0.25 (≈ 0.357 µM) | 0.25 (≈ 0.357 µM) | 0.5 (≈ 0.714 µM) | 0.125 (≈ 0.179 µM) | 0.25 (≈ 0.357 µM)
Cn1cc(NC(=O)c2cc(NC(=O)c3cc(NC(=O)c4nsc(NCCCNC5CCCCC5)c4Cl)cn3C)cn2C)cc1C(=O)NCCCCN | 2 | 2 (≈ 2.65 µM) | 1 (≈ 1.33 µM) | 16 (≈ 21.2 µM) | 4 (≈ 5.3 µM) | 2 (≈ 2.65 µM) | 16 (≈ 21.2 µM) | 2 (≈ 2.65 µM)
Cn1cc(NC(=O)c2cc(NC(=O)c3cc(NC(=O)c4nsc(NCCCNC5CCCCC5)c4Cl)cn3C)cn2C)cc1C(=O)NCCN1CCOCC1 | 0.59 | 2 (≈ 2.51 µM) | 0.062 (≈ 0.0779 µM) | 16 (≈ 20.1 µM) | 16 (≈ 20.1 µM) | 2 (≈ 2.51 µM) | 0.25 (≈ 0.314 µM) | 8 (≈ 10 µM)
Cn1cc(NC(=O)c2cc(NC(=O)c3cc(NC(=O)c4nsc(NCCN5CCOCC5)c4Cl)cn3C)cn2C)cc1C(=O)NCCCO | 32.1 | 32 (≈ 44.7 µM) | 32 (≈ 44.7 µM) | > 32 | > 32 | > 32 | 1 (≈ 1.4 µM) | 
Cn1cc(NC(=O)c2cc(NC(=O)c3cc(NC(=O)c4nsc(NCCCCN)c4Cl)cn3C)cn2C)cc1C(=O)NCCN1CCOCC1 | 0.37 | 4 (≈ 5.49 µM) | 0.5 (≈ 0.687 µM) | 16 (≈ 22 µM) | 8 (≈ 11 µM) | 4 (≈ 5.49 µM) | 0.5 (≈ 0.687 µM) | 4 (≈ 5.49 µM)
